Reference: patent US10105303B2, “Oral care composition comprising zinc amino acid halides” (Colgate-Palmolive Company, priority 2012, dated 2018)
Values joined by “and” are separate entries in the source; they are usually repeats but may differ in a detail not shown here. Identical values can stand only once.

What was measured:
[1] = Dilution experiment of ZLC neat solution: visible flocculation/precipitation and pH; format: physicochemical; settings: for final pH value: diluted sample
Experimental: Various dilutions of ZLC are prepared to evaluate its efficiency in producing visible precipitates and/or flocculation, which can be delivered in situ onto an oral surface or into a dental opening, such as open tubules.
A neat solution of ZLC is prepared by 1), reacting 0.5 mole of ZnO powder with 1 mole of lysine HCl in 1 liter of water at room temperature for about 2 hours, and 2) collecting the supernatant through centrifugation followed by filtration using a 0.45 micron membrane. The neat solution has a zinc concentration of 2.39% by weight, and a pH of about 7.03.
Dilution experiment is conducted by mixing the neat solution with deionized water. The neat solution is diluted by 2×, 4×, 6×, 7×, 8×, 10×, 12×, 16×, 20×, 24×, 28×, and 32×, corresponding to initial zinc concentrations of 1.20%, 0.598%, 0.398%, 0.341%, 0.299%, 0.239%, 0.199%, 0.149%, 0.120%, 0.0996%, 0.0854%, 0.0747%, by weight, respectively. The diluted samples are kept at 37° C., and the rates at which flocculation/precipitation occurred are monitored.
pH values of final diluted samples are suitable for oral care applications. […] These pH values were well within the range of 5.5 to 10, which defines the suitable range for oral care formulations.

[2] = Deposition/occlusion assay on dentine slices, confocal imaging; design: species or system human; settings: for Thickness of surface deposits: 16-fold dilution
Experimental: The deposition/occlusion assay is conducted using human dentine slices and the neat solution of Example 5. The dentine slices were prepared by cutting human tooth into thin dentine sections of about 800 microns in thickness, choosing a test side, sanding said test side using a sandpaper of about 600 grit, polishing said test side using a Buehler polishing cloth and 5 micron Buehler aluminum oxide, acid-etching said dentine section in 1% (by weight) citric acid solution for about 20 seconds, sonicating said dentine section for 10 minutes, and storing said dentine section in phosphate buffered saline (PBS, pH 7.4).
For treatment, the neat solution is diluted 16-fold with water, yielding a treatment solution with initial zinc concentration of about 0.149% by weight. The dentine section is immersed in the treatment solution for 1 hour at 37° C. The treated dentine section is then removed from the treatment solution, and rinsed 4 times, each time with 1 mL of PBS. The dentine section is then dried using a paper-based tissue and examined under confocal microscope in both XYZ and XYZ modes. Subsequent treatments are conducted in the same manner.
Dentine sections, as prepared in Example 6, are repeatedly treated with ZLC dilutions with initial zinc concentration of 0.0747% by weight. […] The dentine section is examined under the confocal microscope after each treatment.

[Zn(C6H14N2O2)2Cl]^+Cl^− [ZLC]
Samples with flocculation and/or precipitation ([1]; after a total of 19 hours, 37° C.): all samples except the one with initial zinc concentration of 1.20%
final pH value ([1]; initial zinc concentration 0.0747%): 7.99
final pH value ([1]; initial zinc concentration 0.0854%): 8.13
final pH value ([1]; initial zinc concentration 0.0996%): 8.11
final pH value ([1]; initial zinc concentration 0.120%): 7.97
final pH value ([1]; initial zinc concentration 0.149%): 7.99
final pH value ([1]; initial zinc concentration 0.199 wt %): 6.80
final pH value ([1]; initial zinc concentration 0.239%): 6.70
pH of the neat solution ([1]; neat solution, zinc concentration 2.39% by weight): about 7.03
Initial zinc concentration of the additional sample with flocculation ([1]; two hours after mixing, 37° C.): 0.299%
Initial zinc concentrations of dilutions with visible flocculation ([1]; within 30 minutes from mixing with water, 37° C.): 0.149% and 0.199%
Deposition and occlusion on dentine surface ([2]; after 4 consecutive treatments, 0.0747% zinc, 10 minutes each at 37° C.): significant surface deposition
Deposition and occlusion on dentine surface ([2]; after 12 consecutive treatments, 0.0747% zinc, 10 minutes each at 37° C.): complete surface coverage
Thickness of surface deposits ([2]; after second treatment, 1 hour at 37° C.): ≥ 10 microns
Thickness of surface deposits ([2]; after third treatment, 1 hour at 37° C.): ≥ 25 microns
Deposition and occlusion on dentine surface ([2]; first treatment, 16-fold dilution (about 0.149% zinc), 1 hour at 37° C.): noticeable deposition
Visible precipitation during treatment ([2]; initial zinc concentration 0.0747%, 10 minutes at 37° C.): no precipitation is observed by naked eyes
Deposition and occlusion on dentine surface ([2]; second treatment, 16-fold dilution (about 0.149% zinc), 1 hour at 37° C.): complete surface coverage, including blocking of substantially all tubule openings
Deposition and occlusion on dentine surface ([2]; third treatment, 16-fold dilution (about 0.149% zinc), 1 hour at 37° C.): complete surface coverage and complete blocking of tubule openings
